The assay deals with insulin secretion. Description: Postprandial insulin secretion after oral glucose + triolein emulsion with added 1-monoolein (Example 5). The format is in vivo, mouse. Particulars: MAG in a one-tenth or one-fifth amount, in words. As for the experimental part: Triolein (obtained from Sigma Corp.) was used as triacylglycerol, and 1-monoolein (obtained from Sigma Corp.) was used as monoacylglycerol. Glucose (Kanto Chemical Co., Inc.) was used as the carbohydrate.
Eight fasted mice (C57BL/6J, male, 8 weeks old) were grouped in each group, and the mice were orally administered, using a sonde, with 2 mg/g of body weight of glucose only; with the glucose and also 2 mg/g of body weight of triolein (TAG), in the form of an emulsion obtained by emulsifying 0.02 mg/g of body weight of the lipid with egg yolk lecithin (Glucose and TAG/MAG0, respectively); or with mixtures obtained by respectively adding 0.08, 0.2 and 0.4 mg/g of body weight of 1-monoolein (MAG) to the emulsion (TAG/MAG1, TAG/MAG2, and TAG/MAG3, respectively). The blood was sampled from the orbital vein of each mouse before the administration, and at 10 and 30 minutes after the administration, the blood insulin level was measured, and the area under curve (AUC) of the graph was calculated. The insulin level was measured by the ELISA method (insulin measuring kit, Morinaga Biochemical Lab, Inc.).
Relative values of the amount of secreted insulin (AUC) for 30 minutes after the administration, with respective to the insulin AUC value of the mice which ingested glucose only, taken as 100, are presented in Table 9.

For `CCCCCCCC/C=C\CCCCCCCC(=O)OCC(O)CO` (stereo not shown) [MAG, 1-monoolein], the “Effect on postprandial insulin secretion relative to TAG/MAG0” value is “effect of suppressing the postprandial insulin secretion in the blood was recognized”.

For the origin of these results see US20100022014A1, “Method for Evaluating Obesity Controller” (Kao Corporation, priority 2006, published 2010).
